Laboratory results as given in patent publication US20250295656A1, “COMBINATION OF LURBINECTEDIN AND IMMUNE CHECKPOINT INHIBITORS” (priority 2020, published 2025).

Tests used:
Format in all cases: cell-based, human
[1] = tested on: U2OS cells stably expressing CALR-GFP; assay: CALR-GFP granularity (surrogate marker of CALR exposure); conditions: lurbinectedin 1 nM to 1 μM, MTX 1 and 3 μM, 4-32 hours, vs untreated controls
Method: (§1) (a) Human osteosarcoma U2OS (a), human breast cancer HCC70 (b) human colon cancer HT29 cells (c) and murine methylcholantrene-induced fibrosarcoma MCA205 cells (d) were treated with lurbinectedin (Lurbi, 1 nM, 10 nM, 100 nM and 1 μM) for the indicated times. Subsequently, the cells were stained with 1 μM Hoechst 33342 and 1 μM propidium iodide and assessed for the loss of viability by automated image acquisition. Images were segmented, cellular debris was excluded and the number of cells with normal nuclear morphology was enumerated. Cells stably expressing CALR-GFP were treated as above. Following the cells were fixed with 3.7% of PFA, stained with 1 μM Hoechst 33342 and assessed by automated image acquisition. Images were segmented, cellular debris was excluded and CALR-GFP granularity (a surrogate marker of CALR exposure) was evaluated in the cytoplasmic region of cells with normal nuclear morphology. Wild type cells were treated as above and then assessed for cytoplasmic quinacrine granularity (after staining with the ATP-sensitive dye quinacrine together with Hoechst 33342) by automated image acquisition, segmentation and analysis. Cells stably expressing HMGB1-GFP were treated as above and then assessed for nuclear HMGB1-GFP fluorescence intensity. The cells were fixed and stained with Hoechst 33342 and images were acquired, segmented and analyzed. […]

U2OS WT cells = assay: Cytoplasmic quinacrine granularity (intracellular ATP, indicator of ATP release); conditions: lurbinectedin 1 nM to 1 μM, MTX 1 and 3 μM, dose-dependent, decreased over time, vs untreated controls
Method: as §1

[2] = tested on: U2OS cells stably expressing HMGB1-GFP; assay: HMGB1 release (loss of nuclear HMGB1-GFP fluorescence); conditions: lurbinectedin 1 nM to 1 μM, MTX 1 and 3 μM, medium to late time points
Method: as §1

[3] = tested on: U2OS biosensor cells expressing GFP under the MX1 promoter; assay: Type I IFN response (MX1-GFP biosensor cells treated with supernatant); conditions: supernatant of treated U2OS cells after 48 hours fresh media; biosensor cells 48 hours; throughout all time points
Method: In a systematic screening campaign, the capacity of lurbinectedin to induce immunogenic cell death in cancer cells was assessed in human osteosarcoma U2OS cells stably expressing fluorescent biosensors for the detection of CALR-relocation (as a surrogate marker for CALR surface exposure), HMGB1 release and Type I IFN responses together with U2OS WT cells stained with the ATP-sensitive dye quinacrine. […] The induction of cell death was evaluated based on changes in the nuclear morphology visualized by means of the DNA intercalating dye Hoechst 33342.

O=C1c2c(O)ccc(O)c2C(=O)c2c(NCCNCCO)ccc(NCCNCCO)c21 [MTX, mitoxantrone]
CALR-granularity [1]: time- and dose-dependent increase
ATP signal (cytoplasmic quinacrine granularity) (U2OS WT cells): significant decrease
nuclear GFP signal (HMGB1-GFP) [2]: significant decrease
de novo GFP signal intensity (type 1 IFN response) [3]: significant increase
